Experimental data from patent US20120138147A1, “PHOTOELECTRIC CONVERSION ELEMENT, MANUFACTURING METHOD OF THE SAME AND ELECTRONIC EQUIPMENT” (Sony Corporation, priority 2010, published 2012).

Experiment: physchem
Description: Here, Ka is the dissociation equilibrium constant of a conjugate acid in water. This additive is typically a pyridine-based additive or an additive having a heterocycle. […] However, the pyridine-based additives are not limited thereto. On the other hand, among specific examples of additives having a heterocycle are N-methylimidazole(MIm), 2,4-lutidine(24-Lu), 2,5-lutidine(25-Lu), 2,6-lutidine(26-Lu), 3,4-lutidine(34-Lu) and 3,5-lutidine(35-Lu). However, the additives having a heterocycle are not limited thereto.

Compound	pKa (water)	pKa
COc1ccccn1 [2-MeO—Py]	3.28	
Brc1cccnc1 [3-Br—Py]	2.84	
COC(=O)c1cccnc1 [3-COOMe—Py]	3.13	
COc1cccnc1 [3-MeO—Py]	4.88	
N#Cc1ccncc1 [4-CN—Py]	1.9	
CCc1ccncc1 [4-Et—Py, 4-ethylpyridine]		6.04
CNc1ccncc1 [4-MeNH—Py]	12.5	
COc1ccncc1 [4-MeO—py, 4-methoxypyridine]	6.62	6.62
Nc1ccncc1 [4-NH2—Py]	9.17	
Cc1ccncc1 [4-pic]	6.03	
Cc1ccnc(C)c1 [24-Lu, 2,4-lutidine]		6.72
Cc1ccc(C)nc1 [25-Lu, 2,5-lutidine]		6.47
Cc1cccc(C)n1 [26-Lu, 2,6-lutidine]	6.77	6.77
Cc1ccncc1C [34-Lu, 3,4-lutidine]		6.52
Cc1cncc(C)c1 [35-Lu, 3,5-lutidine]		6.14
c1ccc2c(c1)ccc1ncccc12 [56-benzoquinoline]	5.15	
Cn1ccnc1 [Mlm, N-methylimidazole]		7.3
Cn1cnc2ccccc21 [NMB]	5.6	
CC(C)(C)c1ccncc1 [TBP, 4-tert-butylpyridine]		5.99
c1ccc2nc3ccccc3cc2c1 [acridine]		5.6
c1ccc(-c2ccccn2)nc1 [bpy]	4.42	
c1ccc2cnccc2c1 [isoquinoline]		5.38
c1cnccn1 [pyrazine]		0.6
c1ccnnc1 [pyridazine]		2.1
c1ccc2ncccc2c1 [quinoline]		4.97
Me-pyrazole	2.1	
